From ChEMBL document CHEMBL1145592, “Pleuromutilin derivatives having a purine ring. Part 1: new compounds with promising antibacterial activity against resistant Gram-positive pathogens” (2008)
≈ marks a conversion by molar mass, not a printed value.

Assays:
Format in all cases: functional
Staphylococcus aureus [1] = assay: Antibacterial activity against methicillin-susceptible Staphylococcus aureus Smith infected iv dosed mouse 1 hr after inoculation
Enterococcus faecium = assay: Antibacterial activity against vancomycin-resistant Enterococcus faecium KU1778
Streptococcus pyogenes = assay: Antibacterial activity against Streptococcus pyogenes ATCC 12344
Haemophilus influenzae = assay: Antibacterial activity against Haemophilus influenzae TH13
Staphylococcus aureus [2] = assay: Antibacterial activity against methicillin-resistant Staphylococcus aureus KMP9
Moraxella catarrhalis = assay: Antibacterial activity against Moraxella catarrhalis K1209
Streptococcus pneumoniae [3] = assay: Antibacterial activity against penicillin-resistant Streptococcus pneumoniae KT2524
Streptococcus pneumoniae [4] = assay: Antibacterial activity against penicillin-susceptible Streptococcus pneumoniae ATCC 49619
Staphylococcus aureus [5] = assay: Antibacterial activity against methicillin-susceptible Staphylococcus aureus Smith

SMILES	ED50 (Staphylococcus aureus [1]) [mg/kg]	MIC (Enterococcus faecium) [µg/mL]	MIC (Streptococcus pyogenes) [µg/mL]	MIC (Haemophilus influenzae) [µg/mL]	MIC (Staphylococcus aureus [2]) [µg/mL]	MIC (Moraxella catarrhalis) [µg/mL]	MIC (Streptococcus pneumoniae [3]) [µg/mL]	MIC (Streptococcus pneumoniae [4]) [µg/mL]	MIC (Staphylococcus aureus [5]) [µg/mL]
C=C[C@]1(C)C[C@@H](OC(=O)CSC2CCN(C(=O)CCn3cnc4c(N5CCC(CN)C5)nc(N)nc43)CC2)[C@]2(C)[C@H](C)CC[C@]3(CCC(=O)[C@@H]32)[C@@H](C)[C@@H]1O (stereo partly drawn)	2.84	0.5 (≈ 0.654 µM)	0.032 (≈ 0.0418 µM)	4 (≈ 5.23 µM)	2 (≈ 2.61 µM)	0.125 (≈ 0.163 µM)	0.125 (≈ 0.163 µM)	0.063 (≈ 0.0823 µM)	0.5 (≈ 0.654 µM)
C=C[C@]1(C)C[C@@H](OC(=O)CSC2CCN(C(=O)CCn3cnc4c(N5CCC(N)C5)nc(N)nc43)CC2)[C@]2(C)[C@H](C)CC[C@]3(CCC(=O)[C@@H]32)[C@@H](C)[C@@H]1O (stereo partly drawn)	3.05	0.125 (≈ 0.166 µM)	0.063 (≈ 0.0839 µM)	1 (≈ 1.33 µM)	1 (≈ 1.33 µM)	0.25 (≈ 0.333 µM)	0.125 (≈ 0.166 µM)	0.125 (≈ 0.166 µM)	0.5 (≈ 0.666 µM)
C=C[C@]1(C)C[C@@H](OC(=O)CSC2CCN(C(=O)CCn3cnc4c(N5CCN(C)CC5)nc(N)nc43)CC2)[C@]2(C)[C@H](C)CC[C@]3(CCC(=O)[C@@H]32)[C@@H](C)[C@@H]1O	8.83	0.125 (≈ 0.163 µM)	0.063 (≈ 0.0823 µM)	2 (≈ 2.61 µM)	0.125 (≈ 0.163 µM)	0.063 (≈ 0.0823 µM)	0.063 (≈ 0.0823 µM)	0.125 (≈ 0.163 µM)	0.125 (≈ 0.163 µM)
C=C[C@]1(C)C[C@@H](OC(=O)CSC2CCN(C(=O)CCn3cnc4c(N5CCC(CN)C5)ncnc43)CC2)[C@]2(C)[C@H](C)CC[C@]3(CCC(=O)[C@@H]32)[C@@H](C)[C@@H]1O (stereo partly drawn)	0.59	0.125 (≈ 0.167 µM)	0.008 (≈ 0.0107 µM)	1 (≈ 1.33 µM)	0.5 (≈ 0.667 µM)	0.063 (≈ 0.084 µM)	0.032 (≈ 0.0427 µM)	0.016 (≈ 0.0213 µM)	0.125 (≈ 0.167 µM)
C=C[C@]1(C)C[C@@H](OC(=O)CSC2CCN(C(=O)CCn3cnc4c(N5CCC(CNC)C5)ncnc43)CC2)[C@]2(C)[C@H](C)CC[C@]3(CCC(=O)[C@@H]32)[C@@H](C)[C@@H]1O (stereo partly drawn)	0.76	0.125 (≈ 0.164 µM)	0.016 (≈ 0.0209 µM)	2 (≈ 2.62 µM)	0.5 (≈ 0.654 µM)	0.125 (≈ 0.164 µM)	0.063 (≈ 0.0825 µM)	0.063 (≈ 0.0825 µM)	0.25 (≈ 0.327 µM)
C=C[C@]1(C)C[C@@H](OC(=O)CSC2CCN(C(=O)CCn3cnc4c(N5CCC(N(C)C)CC5)nc(N)nc43)CC2)[C@]2(C)[C@H](C)CC[C@]3(CCC(=O)[C@@H]32)[C@@H](C)[C@@H]1O	1.72	0.125 (≈ 0.158 µM)	0.032 (≈ 0.0403 µM)	2 (≈ 2.52 µM)	0.25 (≈ 0.315 µM)	0.063 (≈ 0.0794 µM)	0.063 (≈ 0.0794 µM)	0.063 (≈ 0.0794 µM)	0.25 (≈ 0.315 µM)
C=C[C@]1(C)C[C@@H](OC(=O)CSC2CCN(C(=O)CCn3cnc4c(N5CCNCC5)ncnc43)CC2)[C@]2(C)[C@H](C)CC[C@]3(CCC(=O)[C@@H]32)[C@@H](C)[C@@H]1O	2.94	0.032 (≈ 0.0435 µM)	0.016 (≈ 0.0217 µM)	1 (≈ 1.36 µM)	0.063 (≈ 0.0856 µM)	0.032 (≈ 0.0435 µM)	0.032 (≈ 0.0435 µM)	0.032 (≈ 0.0435 µM)	0.063 (≈ 0.0856 µM)
C=C[C@]1(C)C[C@@H](OC(=O)CSC2CCN(C(=O)CCn3cnc4c(N5CC(NC)C5)nc(N)nc43)CC2)[C@]2(C)[C@H](C)CC[C@]3(CCC(=O)[C@@H]32)[C@@H](C)[C@@H]1O	3.97	0.5 (≈ 0.666 µM)	0.125 (≈ 0.166 µM)	2 (≈ 2.66 µM)	1 (≈ 1.33 µM)	0.25 (≈ 0.333 µM)	0.125 (≈ 0.166 µM)	0.063 (≈ 0.0839 µM)	0.5 (≈ 0.666 µM)
C=C[C@]1(C)C[C@@H](OC(=O)CSC2CCN(C(=O)CCn3cnc4c(N5CCCC(N)C5)ncnc43)CC2)[C@]2(C)[C@H](C)CC[C@]3(CCC(=O)[C@@H]32)[C@@H](C)[C@@H]1O (stereo partly drawn)	2.21	0.032 (≈ 0.0427 µM)	0.016 (≈ 0.0213 µM)	1 (≈ 1.33 µM)	0.125 (≈ 0.167 µM)	0.032 (≈ 0.0427 µM)	0.032 (≈ 0.0427 µM)	0.016 (≈ 0.0213 µM)	0.125 (≈ 0.167 µM)
C=C[C@]1(C)C[C@@H](OC(=O)CSC2CCN(C(=O)CCn3cnc4c(N5CCC(NC)CC5)ncnc43)CC2)[C@]2(C)[C@H](C)CC[C@]3(CCC(=O)[C@@H]32)[C@@H](C)[C@@H]1O	2.21	0.063 (≈ 0.0825 µM)	0.032 (≈ 0.0419 µM)	2 (≈ 2.62 µM)	0.25 (≈ 0.327 µM)	0.125 (≈ 0.164 µM)	0.063 (≈ 0.0825 µM)	0.063 (≈ 0.0825 µM)	0.125 (≈ 0.164 µM)
C=C[C@]1(C)C[C@@H](OC(=O)CSC2CCN(C(=O)CCn3cnc4c(N5CCCC(N)C5)nc(N)nc43)CC2)[C@]2(C)[C@H](C)CC[C@]3(CCC(=O)[C@@H]32)[C@@H](C)[C@@H]1O (stereo partly drawn)	2.21	0.25 (≈ 0.327 µM)	0.032 (≈ 0.0418 µM)	2 (≈ 2.61 µM)	1 (≈ 1.31 µM)	0.125 (≈ 0.163 µM)	0.063 (≈ 0.0823 µM)	0.063 (≈ 0.0823 µM)	0.25 (≈ 0.327 µM)
C=C[C@]1(C)C[C@@H](OC(=O)CSC2CCN(C(=O)CCn3cnc4c(N5CCC(NC)C5)nc(N)nc43)CC2)[C@]2(C)[C@H](C)CC[C@]3(CCC(=O)[C@@H]32)[C@@H](C)[C@@H]1O (stereo partly drawn)	1.72	0.25 (≈ 0.327 µM)	0.032 (≈ 0.0418 µM)	1 (≈ 1.31 µM)	1 (≈ 1.31 µM)	0.125 (≈ 0.163 µM)	0.063 (≈ 0.0823 µM)	0.063 (≈ 0.0823 µM)	0.25 (≈ 0.327 µM)
C=C[C@]1(C)C[C@@H](OC(=O)CSC2CCN(C(=O)CCn3cnc4c(N5CC[C@H](N)C5)ncnc43)CC2)[C@]2(C)[C@H](C)CC[C@]3(CCC(=O)[C@@H]32)[C@@H](C)[C@@H]1O	1.3	0.125 (≈ 0.17 µM)	0.016 (≈ 0.0217 µM)	2 (≈ 2.72 µM)	0.5 (≈ 0.679 µM)	0.125 (≈ 0.17 µM)	0.032 (≈ 0.0435 µM)	0.032 (≈ 0.0435 µM)	0.125 (≈ 0.17 µM)
C=C[C@]1(C)C[C@@H](OC(=O)CSC2CCN(C(=O)CCn3cnc4c(N5CC(N)C5)nc(N)nc43)CC2)[C@]2(C)[C@H](C)CC[C@]3(CCC(=O)[C@@H]32)[C@@H](C)[C@@H]1O	3.04	0.25 (≈ 0.339 µM)	0.063 (≈ 0.0855 µM)	1 (≈ 1.36 µM)	1 (≈ 1.36 µM)	0.25 (≈ 0.339 µM)	0.125 (≈ 0.17 µM)	0.063 (≈ 0.0855 µM)	0.5 (≈ 0.678 µM)
C=C[C@]1(C)C[C@@H](OC(=O)CSC2CCN(C(=O)CCn3cnc4c(N5CCNC(C)C5)nc(N)nc43)CC2)[C@]2(C)[C@H](C)CC[C@]3(CCC(=O)[C@@H]32)[C@@H](C)[C@@H]1O (stereo partly drawn)	2.21	0.125 (≈ 0.163 µM)	0.032 (≈ 0.0418 µM)	2 (≈ 2.61 µM)	0.25 (≈ 0.327 µM)	0.063 (≈ 0.0823 µM)	0.063 (≈ 0.0823 µM)	0.063 (≈ 0.0823 µM)	0.25 (≈ 0.327 µM)
C=C[C@]1(C)C[C@@H](OC(=O)CSC2CCN(C(=O)CCn3cnc4c(N5CCC(N)C5)ncnc43)CC2)[C@]2(C)[C@H](C)CC[C@]3(CCC(=O)[C@@H]32)[C@@H](C)[C@@H]1O (stereo partly drawn)		0.032 (≈ 0.0435 µM)	0.016 (≈ 0.0217 µM)	1 (≈ 1.36 µM)	0.125 (≈ 0.17 µM)	0.032 (≈ 0.0435 µM)	0.032 (≈ 0.0435 µM)	0.016 (≈ 0.0217 µM)	0.063 (≈ 0.0856 µM)
C=C[C@]1(C)C[C@@H](OC(=O)CSC2CCN(C(=O)CCn3cnc4c(N5CCC(N)CC5)nc(N)nc43)CC2)[C@]2(C)[C@H](C)CC[C@]3(CCC(=O)[C@@H]32)[C@@H](C)[C@@H]1O	1.86	0.25 (≈ 0.327 µM)	0.063 (≈ 0.0823 µM)	2 (≈ 2.61 µM)	1 (≈ 1.31 µM)	0.125 (≈ 0.163 µM)	0.125 (≈ 0.163 µM)	0.063 (≈ 0.0823 µM)	0.25 (≈ 0.327 µM)
CN[C@H](CC(C)C)C(=O)N[C@H]1C(=O)N[C@@H](CC(N)=O)C(=O)N[C@H]2C(=O)N[C@H]3C(=O)N[C@H](C(=O)N[C@H](C(=O)O)c4cc(O)cc(O)c4-c4cc3ccc4O)[C@H](O)c3ccc(c(Cl)c3)Oc3cc2cc(c3O[C@@H]2O[C@H](CO)[C@@H](O)[C@H](O)[C@H]2O[C@H]2C[C@](C)(N)[C@H](O)[C@H](C)O2)Oc2ccc(cc2Cl)[C@H]1O [VANCOMYCIN]	0.88	> 128		> 128		64 (≈ 44.2 µM)	0.5 (≈ 0.345 µM)	0.25 (≈ 0.173 µM)	
C=C[C@]1(C)C[C@@H](OC(=O)CSC2CCN(C(=O)CCn3cnc4c(N5CCC(N(C)C)C5)nc(N)nc43)CC2)[C@]2(C)[C@H](C)CC[C@]3(CCC(=O)[C@@H]32)[C@@H](C)[C@@H]1O (stereo partly drawn)	3	0.125 (≈ 0.16 µM)	0.063 (≈ 0.0809 µM)	2 (≈ 2.57 µM)	0.25 (≈ 0.321 µM)	0.125 (≈ 0.16 µM)	0.063 (≈ 0.0809 µM)	0.063 (≈ 0.0809 µM)	0.25 (≈ 0.321 µM)
C=C[C@]1(C)C[C@@H](OC(=O)CSC2CCN(C(=O)CCn3cnc4c(N5CC[C@@H](N)C5)ncnc43)CC2)[C@]2(C)[C@H](C)CC[C@]3(CCC(=O)[C@@H]32)[C@@H](C)[C@@H]1O	1.01	0.063 (≈ 0.0856 µM)	0.008 (≈ 0.0109 µM)	1 (≈ 1.36 µM)	0.25 (≈ 0.34 µM)	0.063 (≈ 0.0856 µM)	0.016 (≈ 0.0217 µM)	0.016 (≈ 0.0217 µM)	0.063 (≈ 0.0856 µM)
C=C[C@]1(C)C[C@@H](OC(=O)CSC2CCN(C(=O)CCn3cnc4c(N5CCC(NC)C5)ncnc43)CC2)[C@]2(C)[C@H](C)CC[C@]3(CCC(=O)[C@@H]32)[C@@H](C)[C@@H]1O (stereo partly drawn)	1.61	0.032 (≈ 0.0427 µM)	0.016 (≈ 0.0213 µM)	2 (≈ 2.67 µM)	0.25 (≈ 0.333 µM)	0.063 (≈ 0.084 µM)	0.032 (≈ 0.0427 µM)	0.016 (≈ 0.0213 µM)	0.063 (≈ 0.084 µM)
C=C[C@]1(C)C[C@@H](OC(=O)CSC2CCN(C(=O)CCn3cnc4c(N5CCC(NC)CC5)nc(N)nc43)CC2)[C@]2(C)[C@H](C)CC[C@]3(CCC(=O)[C@@H]32)[C@@H](C)[C@@H]1O	1.41	0.5 (≈ 0.642 µM)	0.063 (≈ 0.0809 µM)	2 (≈ 2.57 µM)	2 (≈ 2.57 µM)	0.25 (≈ 0.321 µM)	0.25 (≈ 0.321 µM)	0.125 (≈ 0.16 µM)	0.5 (≈ 0.642 µM)
C=C[C@]1(C)C[C@@H](OC(=O)CSC2CCN(C(=O)CCn3cnc4c(N5CCC(N)CC5)ncnc43)CC2)[C@]2(C)[C@H](C)CC[C@]3(CCC(=O)[C@@H]32)[C@@H](C)[C@@H]1O	1.5	0.063 (≈ 0.084 µM)	0.016 (≈ 0.0213 µM)	4 (≈ 5.33 µM)	0.25 (≈ 0.333 µM)	0.063 (≈ 0.084 µM)	0.032 (≈ 0.0427 µM)	0.016 (≈ 0.0213 µM)	0.125 (≈ 0.167 µM)
